Data from paper PMC12022973, “Proteomimetic Strategy for the Modulation of Intrinsically Disordered Protein MYC” (Journal of the American Chemical Society, 2025).
Starred links: 1 amine or outer side, 2 acyl side, 3 side chain; linkers in the order of their positions; H or OH if unused. Positions of bridges follow the written chain, without caps; N, C: chain ends. Residues, ends and D or L forms follow the SMILES beside them. Chains are numbered I, II in the order given. *: point of attachment. FITC = O=C1OC2(c3ccc(O)cc3Oc3cc(O)ccc32)c2ccc(NC(=S)*)cc21; X1 = c1cc(C[*:1])ccc1COCc1ccc(C[*:2])cc1; βAla = NCCC(=O)O

Experiments:
[1] = biological target: T1, recombinant human MYC^353–437 protein (His6-MYC^353–437) (Homo sapiens, UniProt P01106); assay: Fluorescence polarization direct binding of fluorescein-labeled CHDs to His6-MYC353-437; conditions: FP direct binding; 15 nM FITC-labeled peptide; His6-MYC serial dilutions from 10 μM; 1X PBS, 1 mM DTT, 5% glycerol, 0.1% pluronic acid, pH 6.7; 25 °C; triplicate; MYC aggregates above 5 μM; read-out: Binding Affinity MYC^353-436, Kd
T1 construct: recombinant human MYC^353–437 protein; made in house; host or cells: E. coli BL21(DE3), pET151-D-TOPO-cMyc vector
T1 sequence (P01106 368-452): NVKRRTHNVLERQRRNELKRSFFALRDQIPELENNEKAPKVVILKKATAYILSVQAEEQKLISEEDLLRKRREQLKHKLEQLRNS
Method: pET151-D-TOPO-cMyc vector was kindly provided by Dr. Edward Prochownik from the
Department of Pediatrics at UPMC Children’s Hospital of Pittsburgh. Expression and purification
of Myc353-437 were performed using an established protocol with minor modifications.7 BL21(DE3)
cells were used to express recombinant Myc353-437 protein. Bacteria were grown at 37 °C to OD600
of 0.8 followed by 1 mM IPTG induction and 16-18h growth at RT. Cells were harvested via
centrifugation at 4,000 rpm at 4 °C and the pellet was resuspended in 10 mL of lysis buffer (8 M
urea, 100 mM NaH2PO4, 10 mM Tris HCl, pH 8) supplemented with protease inhibitor cocktail
(PierceTM Protease Inhibitor Tablets) and benzonase nuclease. Suspensions were sonicated on
ice using a Branson Cell Disruptor 200 and centrifuged at 12,000 rpm for 45 min at 4 °C. Clarified
lysate was applied to a column containing pre-equilibrated HisPur Ni-NTA Superflow Agarose
(ThermoFisher Scientific) for overnight at 4 °C. The resin beads were washed with 10 mL of
additional lysis buffer followed by three washes of 10 mL wash buffer (8 M urea, 100 mM
NaH2PO4, 10 mM Tris HCl, 10 mM imidazole). The target protein was eluted with elution buffer (8
M urea, 100 mM NaH2PO4, 10 mM Tris HCl, 250 mM imidazole) and buffer exchanged into 150
mM NaCl, 50 mM Tris HCl, 5% glycerol, pH 6.7. Protein was concentrated by ultra-filtration (3000
MWCO; Amicon Ultra-15 Centrifugal Filter units from EMD Millipore) followed by TEV cleavage
(1:100 w/w of protease to target protein) in 150 mM NaCl, 50 mM Tris HCl, 5% glycerol, pH 6.7
for 24 hrs at 4 °C. The cleaved protein is further purified by reverse-phase HPLC (gradient 10-60
acetonitrile/water with 0.1% TFA over 35 min) to remove TEV protease and un-cleaved protein.
Purified Myc353-437 was lyophilized and stored at -20 °C. Myc353-437 identity was characterized by
(§1) Fluorescence Polarization Binding Assay
(§2) The relative affinities of FITC-CHDMax-1 to His6-Myc353-436 and full-length His6-Max were
(§3) determined using fluorescence polarization-based direct binding assay. The polarization
(§4) experiments were performed using a DTX 880 Multimode Detector (Beckman) at 25 °C with
(§5) excitation and emission wavelengths of 485 and 525 nm, respectively. Each polarization
(§6) experiment was performed in a 96-well round bottom plate (Greiner) in assay buffer: 1X PBS, 1
(§7) mM DTT, 5% glycerol, 0.1% pluronic acid, pH 6.7. The binding affinity (KD) values reported for
(§8) each peptide are from experiments performed in triplicate. Raw values were fit to a sigmoidal
(§9) dose-response nonlinear regression model in GraphPad Prism 6.0.
(§10) All binding experiments with FITC-labeled peptides to His6-Myc353-436 or His6-Max were performed
(§11) under the same conditions. Briefly, serial dilutions of His6-Myc353-436 and His6-Max were made
(§12) from 10 μM into 15 nM of FITC-labeled peptide in assay buffer. KD was determined using the
(§13) KD1 = (RT*(1-FSB) + LST*FSB2)/FSB-LST
(§14) RT = Total concentration of His6-Myc353-436 or His6-Max
(§15) LST = Total concentration of FITC-labeled peptide
(§16) FSB = Fraction of bound FITC-labeled peptide

[2] = biological target: T2, full-length His6-Max (MAX^1-160) (Homo sapiens, UniProt P61244); assay: Fluorescence polarization direct binding to His6-MAX; conditions: FP direct binding; 15 nM FITC-labeled peptide; His6-MAX from 10 μM; 1X PBS, 1 mM DTT, 5% glycerol, 0.1% pluronic acid, pH 6.7; 25 °C
T2 construct: N.B. (MAX^1-160)
T2 sequence (P61244 whole entry): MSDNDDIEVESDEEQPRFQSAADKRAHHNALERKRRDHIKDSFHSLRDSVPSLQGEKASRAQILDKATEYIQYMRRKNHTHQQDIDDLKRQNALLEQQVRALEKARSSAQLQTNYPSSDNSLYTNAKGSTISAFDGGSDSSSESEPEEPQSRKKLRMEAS
Method: as §1, §2, §3, §4, §5, §6, §7, §8, §9, §10, §11, §12, §13, §14, §15, §16

Row | Kd [1] [nM] | CHD^Max-1 Binding Affinity, Kd (MAX^1-160) [2] | SMILES
1 | 880 ± 53 | – | CC[C@H](C)[C@H](NC(=O)[C@H](CCCCN)NC(=O)[C@H](CCC(=O)O)NC(=O)[C@H](CCCNC(=N)N)NC(=O)[C@H](CC(C)C)NC(C)=O)C(=O)N[C@@H](C)C(=O)N[C@H](C(=O)N[C@@H](CC(C)C)C(=O)N[C@@H](CCC(N)=O)C(=O)N[C@@H](Cc1c[nH]c2ccccc12)C(=O)N[C@@H](CSCc1ccc(COCc2ccc(CSC[C@H](NC(=O)[C@H](CC(C)C)NC(=O)[C@H](CCC(=O)O)NC(=O)[C@H](CCCNC(=N)N)NC(=O)[C@@H](NC(=O)[C@H](CCCNC(=N)N)NC(=O)[C@H](Cc3c[nH]c4ccccc34)NC(=O)[C@H](CCC(N)=O)NC(=O)[C@H](Cc3c[nH]cn3)NC(=O)[C@@H](NC(=O)[C@H](CCC(=O)O)NC(=O)[C@@H](NC(=O)[C@H](CCCNC(=N)N)NC(=O)[C@H](C)NC(=O)[C@H](CCC(=O)O)NC(=O)[C@H](CC(C)C)NC(C)=O)[C@@H](C)CC)[C@@H](C)O)[C@@H](C)CC)C(=O)N[C@@H](CCC(=O)O)C(N)=O)cc2)cc1)C(=O)N[C@H](C(=O)N[C@@H](CCC(=O)O)C(=O)N[C@@H](CCC(=O)O)C(=O)N[C@@H](CC(C)C)C(=O)N[C@@H](CCCNC(=N)N)C(=O)N[C@@H](CCCCN)C(N)=O)[C@@H](C)CC)[C@@H](C)O [CHD^Max-2] (I: Ac-LEARIETHQWRIRELCE-NH2 / II: Ac-LREKIATLQWCIEELRK-NH2; linker I:16-II:11 via X1)
2 | > 5000 | – | CC[C@H](C)[C@H](NC(=O)[C@H](CCC(=O)O)NC(=O)[C@H](Cc1c[nH]c2ccccc12)NC(=O)[C@H](CCC(N)=O)NC(=O)[C@H](C)NC(=O)[C@@H](NC(=O)[C@H](CCC(=O)O)NC(=O)[C@H](C)NC(=O)[C@H](CCCCN)NC(=O)[C@H](CCCNC(=N)N)NC(=O)[C@H](CCCNC(=N)N)NC(=O)[C@H](CC(C)C)NC(C)=O)[C@@H](C)O)C(=O)N[C@@H](CCC(=O)O)C(=O)N[C@@H](CCC(=O)O)C(=O)N[C@@H](CC(C)C)C(=O)N[C@@H](CSCc1ccc(COCc2ccc(CSC[C@H](NC(=O)[C@H](Cc3c[nH]c4ccccc34)NC(=O)[C@H](CCC(N)=O)NC(=O)[C@H](CC(C)C)NC(=O)[C@@H](NC(=O)[C@H](C)NC(=O)[C@H](C)NC(=O)[C@H](CCCCN)NC(=O)[C@H](CCC(=O)O)NC(=O)[C@H](CCCNC(=N)N)NC(=O)[C@H](CC(C)C)NC(C)=O)[C@@H](C)O)C(=O)N[C@H](C(=O)N[C@@H](CCC(=O)O)C(=O)N[C@@H](CCC(=O)O)C(=O)N[C@@H](CC(C)C)C(=O)N[C@@H](CCCNC(=N)N)C(=O)N[C@@H](CCCCN)C(N)=O)[C@@H](C)CC)cc2)cc1)C(N)=O [CHD^Max-3] (I: Ac-LREKAATLQWCIEELRK-NH2 / II: Ac-LRRKAETAQWEIEELC-NH2; linker I:11-II:16 via X1)
3 | 350 ± 17 | no binding was observed | CC[C@H](C)[C@H](NC(=O)[C@H](CCCCN)NC(=O)[C@H](CCC(=O)O)NC(=O)[C@H](CCCNC(=N)N)NC(=O)[C@H](CC(C)C)NC(=O)CCNC(=S)Nc1ccc2c(c1)C(=O)OC21c2ccc(O)cc2Oc2cc(O)ccc21)C(=O)N[C@@H](C)C(=O)N[C@H](C(=O)N[C@@H](CC(C)C)C(=O)N[C@@H](CCC(N)=O)C(=O)N[C@@H](Cc1c[nH]c2ccccc12)C(=O)N[C@@H](CSCc1ccc(COCc2ccc(CSC[C@H](NC(=O)[C@H](CC(C)C)NC(=O)[C@H](CCC(=O)O)NC(=O)[C@H](CCC(=O)O)NC(=O)[C@@H](NC(=O)[C@H](CCC(=O)O)NC(=O)[C@H](Cc3c[nH]c4ccccc34)NC(=O)[C@H](CCC(N)=O)NC(=O)[C@H](Cc3c[nH]cn3)NC(=O)[C@@H](NC(=O)[C@H](CCC(=O)O)NC(=O)[C@H](CC(N)=O)NC(=O)[C@H](CCCCN)NC(=O)[C@H](CCCNC(=N)N)NC(=O)[C@H](CCCNC(=N)N)NC(=O)[C@H](CC(C)C)NC(C)=O)[C@@H](C)O)[C@@H](C)CC)C(N)=O)cc2)cc1)C(=O)N[C@H](C(=O)N[C@@H](CCC(=O)O)C(=O)N[C@@H](CCC(=O)O)C(=O)N[C@@H](CC(C)C)C(=O)N[C@@H](CCCNC(=N)N)C(=O)N[C@@H](CCCCN)C(N)=O)[C@@H](C)CC)[C@@H](C)O [FITC–CHD^Max-1] (I: {FITC-βAla}-LREKIATLQWCIEELRK-NH2 / II: Ac-LRRKNETHQWEIEELC-NH2; linker I:11-II:16 via X1)
4 | > 5000 | – | CC[C@H](C)[C@H](NC(=O)[C@H](CCC(=O)O)NC(=O)[C@H](Cc1c[nH]c2ccccc12)NC(=O)[C@H](CCC(N)=O)NC(=O)[C@H](C)NC(=O)[C@@H](NC(=O)[C@H](CCC(=O)O)NC(=O)[C@H](C)NC(=O)[C@H](CCCCN)NC(=O)[C@H](CCCNC(=N)N)NC(=O)[C@H](CCCNC(=N)N)NC(=O)[C@H](CC(C)C)NC(C)=O)[C@@H](C)O)C(=O)N[C@@H](CCC(=O)O)C(=O)N[C@@H](CCC(=O)O)C(=O)N[C@@H](CC(C)C)C(=O)N[C@@H](CSCc1ccc(COCc2ccc(CSC[C@H](NC(=O)[C@H](Cc3c[nH]c4ccccc34)NC(=O)[C@H](CCC(N)=O)NC(=O)[C@H](CC(C)C)NC(=O)[C@@H](NC(=O)[C@H](C)NC(=O)[C@H](C)NC(=O)[C@H](CCCCN)NC(=O)[C@H](CCC(=O)O)NC(=O)[C@H](CCCNC(=N)N)NC(=O)[C@H](CC(C)C)NC(=O)CCNC(=S)Nc3ccc4c(c3)C(=O)OC43c4ccc(O)cc4Oc4cc(O)ccc43)[C@@H](C)O)C(=O)N[C@H](C(=O)N[C@@H](CCC(=O)O)C(=O)N[C@@H](CCC(=O)O)C(=O)N[C@@H](CC(C)C)C(=O)N[C@@H](CCCNC(=N)N)C(=O)N[C@@H](CCCCN)C(N)=O)[C@@H](C)CC)cc2)cc1)C(N)=O [FITC–CHD^Max-3] (I: {FITC-βAla}-LREKAATLQWCIEELRK-NH2 / II: Ac-LRRKAETAQWEIEELC-NH2; linker I:11-II:16 via X1)
